{
  "source": "patent US20070026478A1",
  "about": "“Hemiasterlin affinity probes and their uses” (WYETH, priority 2002, published 2007)",
  "key": {"bovine brain tubulin": {"target": "T1, bovine brain tubulin (Bos taurus, UniProt P81947+Q6B856)", "T1 construct": "MAP-rich bovine brain tubulin (99% purity), Hela cell tubulin (90% purity); purchased Cytoskeleton (Denver, Colo.); host or cells: bovine brain", "experiment": "Competition of [3H]-Probe 1 photolabeling of tubulin", "type": "binding", "conditions": "for inhibition of tubulin labeling by non-radiolabeled probe: 100 μM non-radiolabeled; for Probe 1 photolabeling of tubulin (% of no-competitor control): control (no competitor) = 100", "description": "Alternatively, a cytosolic preparation of KB-3-1 cell lysates (50 μg) or KB-3-1 cells (40,000 cells) were used in the place of purified tubulin above. The supernatant of mechanically disrupted cells centrifuged at 100,000×g was used as a cytosolic preparation. K-3-1 cells were prepared by growing KB-3-1 cells in a 96-well plate and rinsing them with serum free medium.\nIf whole cells were used, Laemmli sample buffer was then added to lyse the cells.\nLow grade SDS (Sigma, catalog No. L5750) was used in the running buffer, when needed, to allow separation of α and β-tubulin subunits. Gels were fixed, stained with Coomassie blue from BioRad (Hercules, Calif.) to ensure equal loading of protein, and sliced. […] Alternatively, gels were incubated with EN^3HANCE according to the manufacturer's instructions (Life Sciences Products, Inc.), washed, and dried prior to exposure of the gel to Biomax MX film from Kodak (Rochester, N.Y.) for fluorography.\nAfter incubation for 30 minutes at 37° C., samples were irradiated with 360 nm UV light for 30 minutes and separated by SDS-PAGE. Gels were exposed to film using fluorographic techniques.\nIn particular, photolabeling experiments were performed as described in section 7.1.5 above, at both room temperature and at 37° C."}, "KB cells": {"system": "KB cells", "experiment": "Cell proliferation assay in tissue culture (SRB)", "type": "cell-based", "conditions": "Homo sapiens, KB, 72 h", "description": "Cell proliferation studies were performed according to procedures described by Loganzo et al. (Cancer Res. 2003, 63:1838-1845). Briefly, KB cells were plated in 96-well plates in 100 μL media at densities pre-determined to produce 60-90% confluence at the time of analysis. Compounds, which were serially diluted into media as 2× stocks, were added to cells in duplicate. After 72 hours of incubation, cell survival was assayed by the SRB assay as described (Rabindran et al., C. Cancer Res. 1998, 58:5850-5858). IC50 values (i.e. the concentration of drug needed to inhibit cell growth by 50%) were used to evaluate drug potency."}},
  "note": "Marks after values point to notes of the source that are not given here.",
  "data": [
    {"compound": "CN[C@H](C(=O)N[C@H](C(=O)N(C)[C@H](/C=C(\\C)C(=O)O)C(C)C)C(C)(C)C)C(C)(C)c1ccc(C(=O)c2ccccc2)cc1", "note": "[Probe 1, 4-benzoyl-N,β,β-trimethyl-L-phenylalanyl-N^1-[(1S,2E)-3-carboxy-1-isopropylbut-2-enyl]-N^1,3-dimethyl-L-valinamide]", "values": [
      {"measurement": "inhibition of tubulin labeling by non-radiolabeled probe", "setting": "bovine brain tubulin; tubulin: radiolabeled probe 1 of 2.5:0.25 (10:1)", "result": 93, "unit": "%"},
      {"measurement": "inhibition of tubulin labeling by non-radiolabeled probe", "setting": "bovine brain tubulin; tubulin: radiolabeled probe 1 of 2.5:2.5 (1:1)", "result": 82, "unit": "%"},
      {"measurement": "reduction of Probe 1 photolabeling of tubulin", "setting": "bovine brain tubulin; 37° C.", "result": "about 75%"},
      {"measurement": "Probe 1 photolabeling of tubulin (% of no-competitor control)", "setting": "bovine brain tubulin; 37° C., 100 μM competitor", "result": "24^† %"},
      {"measurement": "Probe 1 photolabeling of tubulin (% of no-competitor control)", "setting": "bovine brain tubulin; Room Temp., 2.5 μM tubulin, 0.25 μM radiolabeled Probe 1, 100 μM competitor", "result": "12 ± 7.8", "unit": "%"},
      {"measurement": "IC50", "setting": "bovine brain tubulin; room temperature, 2.5 μM tubulin, 0.25 μM radiolabeled Probe 1, read-out: IC50 for inhibition of Probe 1 photolabeling of tubulin", "result": 5000, "unit": "nM"},
      {"measurement": "reduction of Probe 1 photolabeling of tubulin", "setting": "bovine brain tubulin; room temperature, 400-fold molar excess (100 μM) competitor, 2.5 μM tubulin, 0.25 μM radiolabeled Probe 1", "result": "approximately 87%"},
      {"measurement": "IC50", "setting": "KB cells", "result": 1.8, "unit": "nM"}
    ]}
  ]
}
